This note sets out measurements from publication doi:10.1101/2025.10.30.685691v1 (biorxiv, 2025).

In data set [1] the target is BaPDH (WT-BaPDH, full-length ACT-containing prephenate dehydrogenase) (Bacillus anthracis, UniProt Q81P63). Kind of data set: biochemical.
The test system of data set [2] is O=C(O)C(=O)CC1(C(=O)O)C=CC(O)C=C1. Briefly: purified protein. The settings on record: pH 7.5.

Chain of BaPDH (WT-BaPDH, full-length ACT-containing prephenate dehydrogenase) (Q81P63 1-378 limits assumed): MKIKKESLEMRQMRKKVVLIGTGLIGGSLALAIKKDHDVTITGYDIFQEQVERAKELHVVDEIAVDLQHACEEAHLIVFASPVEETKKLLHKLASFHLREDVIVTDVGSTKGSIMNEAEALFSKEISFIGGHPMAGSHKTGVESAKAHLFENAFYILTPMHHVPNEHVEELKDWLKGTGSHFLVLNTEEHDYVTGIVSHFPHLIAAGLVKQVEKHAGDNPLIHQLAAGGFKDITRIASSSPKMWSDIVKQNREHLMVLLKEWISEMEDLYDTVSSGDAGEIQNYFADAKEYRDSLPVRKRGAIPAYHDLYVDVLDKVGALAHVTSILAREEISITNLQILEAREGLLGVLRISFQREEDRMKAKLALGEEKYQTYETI

Usually Ki stands for a measure of affinity in units of concentration, obtained from inhibition or displacement. Low readings indicate a stronger hold on the target, high ones a looser hold on the target. `N[C@@H](Cc1ccc(O)cc1)C(=O)O` [tyrosine] had a Ki in data set [1] of 1500 ± 200 nM.

What is called Km is the concentration of substrate that gives half-maximal velocity. “BaPDH (WT-BaPDH, full-length ACT-containing prephenate dehydrogenase) (Bacillus anthracis)”: in data set [2], the Michaelis constant (Km) came to 78 ± 10 µM.
